From paper PMC6403800 (Polymers, 2018)
Read-outs that look alike come from different tables or passages of the source. Peptide text beside a SMILES is read from it.

Columns and labels:
[1] = target: T1, α-hemolysin (α-HL) nanopore (Staphylococcus aureus, UniProt P09616); assay: biochemical; format: binding; details: for kon: extrapolated to ΔV→0 by fit kon(ΔV)=kon(0)exp(aΔV)
[2] = target: T1, α-hemolysin (α-HL) nanopore

T1 sequence (P09616 27-319 limits assumed): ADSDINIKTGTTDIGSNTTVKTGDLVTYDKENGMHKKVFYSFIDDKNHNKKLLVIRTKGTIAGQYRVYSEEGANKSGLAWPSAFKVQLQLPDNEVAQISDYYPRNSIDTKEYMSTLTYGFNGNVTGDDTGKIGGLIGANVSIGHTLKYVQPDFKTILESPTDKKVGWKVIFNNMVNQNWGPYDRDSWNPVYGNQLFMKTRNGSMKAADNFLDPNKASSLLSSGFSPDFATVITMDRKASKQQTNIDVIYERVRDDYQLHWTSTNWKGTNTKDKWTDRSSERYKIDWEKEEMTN

Molecule	dissociation rate constant koff, comparison in words ([1]; pH 7)	relative blockade extent ΔIblock,1/Iopen, comparison in words [2]	relative blockade extent ΔIblock,1/Iopen (residual current I1) ([2]; pH 7)	relative blockade extent ΔIblock,2/Iopen (residual current I2) ([2]; pH 7)	dissociation rate, cis vs trans entry with preserved axial orientation, in words ([1]; at +ΔV (Figure 7a,d) and at −ΔV (Figure 7b,c), 30 μM)	dissociation, comparison of polarity in words ([1]; cis-added, +ΔV vs −ΔV (Figure 7c,d), 30 μM)	association rates trans vs cis side, in words ([1]; high voltages (|ΔV| > 100 mV), 30 μM)	association rate kon, ranking by addition side and voltage polarity ([1]; high voltages (|ΔV| > 100 mV), 30 μM peptide, cis or trans addition)	kon ([1]; pH 7, read-out: near equilibrium association rate constant kon(0), cis-added, +ΔV, 30 μM peptide, 2 M KCl, 10 mM HEPES, pH 7, ~23 °C) [M⁻¹ s⁻¹]	kon ([1]; pH 7, read-out: near equilibrium association rate constant kon(0), cis-added, −ΔV, 30 μM peptide, 2 M KCl, 10 mM HEPES, pH 7, ~23 °C) [M⁻¹ s⁻¹]	kon ([1]; pH 7, read-out: near equilibrium association rate constant kon(0), trans-added, +ΔV, 30 μM peptide, 2 M KCl, 10 mM HEPES, pH 7, ~23 °C) [M⁻¹ s⁻¹]	kon ([1]; pH 7, read-out: near equilibrium association rate constant kon(0), trans-added, −ΔV, 30 μM peptide, 2 M KCl, 10 mM HEPES, pH 7, ~23 °C) [M⁻¹ s⁻¹]	dissociation rate constant koff, comparison of polarity in words ([1]; trans-added, +ΔV vs −ΔV (Figure 7a,b), 30 μM)	association rate constant kon, comparison in words ([1]; trans-added, Pe6 vs Pe4, voltage-dependent (Figure 4a,c), 2 M KCl, 10 mM HEPES, pH 7, ~23 °C)	trapping time inside α-HL, comparison in words ([1]; trans-added, as the positive voltage increases (+80, +90, +100 mV), Pe6 vs Pe4, 2 M KCl, pH 7)	association rate, comparison of polarity in words ([1]; trans-added, relatively low transmembrane potential values (Figure 6a,b insets), 30 μM)	near equilibrium kon(0), ranking by addition side and voltage polarity ([1]; ΔV→0, cis or trans addition, 30 μM peptide)	relative blockade extent ΔIblock,1/Iopen (residual current I1) ([2]; deeper blockade sub-state I1, Fig. 1: 20 µM trans-added, ΔV = +100 mV, 2 M KCl, 10 mM HEPES, pH 7, ~23 °C, kind of spread not stated)	relative blockade extent ΔIblock,2/Iopen (residual current I2) ([2]; shallower blockade sub-state I2, Fig. 1: 20 µM trans-added, ΔV = +100 mV, 2 M KCl, 10 mM HEPES, pH 7, ~23 °C, kind of spread not stated)
Ac–(R)12–(I)6–(E)12–NH2 [Pe4]	slightly faster dissociation step	slightly higher extent of relative blockade	0.93 ± 5.1 × 10^−4	0.83 ± 0.004	–	–	–	–	–	–	–	–	–	–	–	–	–	–	–
CC(=O)N[C@@H](CCCNC(=N)N)C(=O)N[C@@H](CCCNC(=N)N)C(=O)N[C@@H](CCCNC(=N)N)C(=O)N[C@@H](CCCNC(=N)N)C(=O)N[C@@H](CCCNC(=N)N)C(=O)N[C@@H](CCCNC(=N)N)C(=O)N[C@@H](CCCNC(=N)N)C(=O)N[C@@H](CCCNC(=N)N)C(=O)N[C@@H](CCCNC(=N)N)C(=O)N[C@@H](CCCNC(=N)N)C(=O)N[C@@H](CCCNC(=N)N)C(=O)N[C@@H](CCCNC(=N)N)C(=O)N[C@@H](CO)C(=O)N[C@@H](CO)C(=O)N[C@@H](CO)C(=O)N[C@@H](CO)C(=O)N[C@@H](CO)C(=O)N[C@@H](CO)C(=O)N[C@@H](CCC(=O)O)C(=O)N[C@@H](CCC(=O)O)C(=O)N[C@@H](CCC(=O)O)C(=O)N[C@@H](CCC(=O)O)C(=O)N[C@@H](CCC(=O)O)C(=O)N[C@@H](CCC(=O)O)C(=O)N[C@@H](CCC(=O)O)C(=O)N[C@@H](CCC(=O)O)C(=O)N[C@@H](CCC(=O)O)C(=O)N[C@@H](CCC(=O)O)C(=O)N[C@@H](CCC(=O)O)C(=O)N[C@@H](CCC(=O)O)C(N)=O [Pe6, Ac–(R)12–(S)6–(E)12–NH2] (Ac-RRRRRRRRRRRRSSSSSSEEEEEEEEEEEE-NH2)	–	–	–	–	within the same order of magnitude	dissociates faster at +ΔVs (Figure 7d) than −ΔVs	the association rates from the trans side are, in general, larger than peptide association from the cis side	koncis;−ΔV<koncis;+ΔV<kontrans;+ΔV<kontrans;−ΔV	63 ± 35.1	26.1 ± 8.9	83500	1200	larger at +ΔVs than at −ΔVs	almost one order of magnitude larger than that of the isoleucine-containing peptide (Pe4)	being trapped longer than Pe4 peptide inside the α-HL, as the voltage increases	associate faster to the nanopore at +ΔVs (Figure 6a, inset) than −ΔV s	koncis;−ΔV(0)<koncis;+ΔV(0)<kontrans;−ΔV(0)<kontrans;+ΔV(0)	0.91 ± 0.003	0.83 ± 0.002
